Test results reported in patent US4175125A, “Method for treating methicillin resistant staphylococcus aureus” (Eli Lilly and Company, priority 1978, dated 1979).
Values after ≈ are worked out from the molar mass of the structure shown.

Tests used:
Assay type in all cases: cell-based
[1] = tested on: Staphylococcus aureus cultures; test: Broth dilution MIC in trypticase soy broth, low and high NaCl (Example 10); details: for MIC: Staphylococcus aureus, TSB
Procedure, shortened: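 MIC by broth dilution, in µg/ml, against Staphylococcus aureus cultures grown in trypticase soy broth containing either 0.5 percent or 5.0 percent NaCl. The high-salt condition serves to distinguish methicillin-resistant cultures.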

[2] = tested on: Staphylococcus aureus cultures; test: Agar dilution susceptibility test, phenylthioacetyl cephalosporins vs methicillin resistant S. aureus (Example 9); details: Staphylococcus aureus
Procedure, shortened: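 Agar dilution MIC, μg/mL, against Staphylococcus aureus isolates, inocula diluted to 10^3 bacteria per spot. Panel: penicillin-sensitive 3055 and penicillin-resistant H232 controls, methicillin-resistant clinical isolates, and laboratory-selected mutant 3136.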

[3] = tested on: Staphylococcus aureus cultures; test: Agar dilution MIC, Example 13 compound vs methicillin resistant Staphylococcus aureus
Excerpt: The table which follows gives the minimum inhibitory concentration (MIC) in micrograms of compound per milliliter of culture (μg/ml), in comparison with similar MIC values for the known antibiotics methicillin, cephalothin and cephaloridine against the same strains of bacteria.

[4] = culture 3130, table part marked b
[5] = culture 3130, table part marked c
[6] = culture 3131, table part marked b
[7] = culture 3131, table part marked c
[8] = culture 3134, table part marked b
[9] = culture 3134, table part marked c
[10] = culture 3135, table part marked b
[11] = culture 3135, table part marked c
[12] = culture 3136, table part marked b
[13] = culture 3136, table part marked c
[14] = culture 3137, table part marked b
[15] = culture 3137, table part marked c
[16] = culture 3138, table part marked b
[17] = culture 3138, table part marked c
[18] = culture 3139, table part marked b
[19] = culture 3139, table part marked c
[20] = culture (Seattle) 966, table part marked b
[21] = culture (Seattle) 966, table part marked c
[22] = culture S61, table part marked b
[23] = culture S61, table part marked c

Q: With `CC(=O)OCC1=C(C(=O)O)N2C(=O)[C@@H](NC(=O)Cc3cccs3)[C@H]2SC1` [Cephalothin, cephalothin, reference compound] as the compound, how does the “difference in MIC values in low versus high salt TSB cultures” value ([1]; 0.5 percent vs 5.0 percent NaCl, methicillin-resistant S. aureus) read?
A: fairly wide difference (increase in MIC value from 2 to 64)

Q: What about the MIC ([1]; culture 3055 (control), table part marked b) of the same compound?
A: 0.5 µg/mL (≈ 1.26 µM)

Q: And the MIC ([1]; culture 3055 (control), table part marked c)?
A: 0.5 µg/mL (≈ 1.26 µM)

Q: What about the MIC [1, 4] of the same compound?
A: 8 µg/mL (≈ 20.2 µM)

Q: What about the MIC [1, 5] of the same compound?
A: 64 µg/mL (≈ 161 µM)

Q: And the MIC [1, 6]?
A: 2 µg/mL (≈ 5.04 µM)

Q: And the MIC [1, 7]?
A: 64 µg/mL (≈ 161 µM)

Q: What about the MIC ([1]; culture 3132 (first column so headed), table part marked b) of the same compound?
A: 2 µg/mL (≈ 5.04 µM)

Q: And the MIC ([1]; culture 3132 (first column so headed), table part marked c)?
A: 64 µg/mL (≈ 161 µM)

Q: And the MIC ([1]; culture 3132 (second column so headed), table part marked b)?
A: 2 µg/mL (≈ 5.04 µM)

Q: And the MIC ([1]; culture 3132 (second column so headed), table part marked c)?
A: 64 µg/mL (≈ 161 µM)

Q: What about the MIC [1, 8] of the same compound?
A: 32 µg/mL (≈ 80.7 µM)

Q: And the MIC [1, 9]?
A: 64 µg/mL (≈ 161 µM)

Q: What about the MIC [1, 10] of the same compound?
A: 2 µg/mL (≈ 5.04 µM)

Q: And the MIC [1, 11]?
A: 64 µg/mL (≈ 161 µM)

Q: What about the MIC [1, 12] of the same compound?
A: 2 µg/mL (≈ 5.04 µM)

Q: And the MIC [1, 13]?
A: 64 µg/mL (≈ 161 µM)

Q: What about the MIC [1, 14] of the same compound?
A: 64 µg/mL (≈ 161 µM)

Q: What about the MIC [1, 15] of the same compound?
A: 128 µg/mL (≈ 323 µM)

Q: And the MIC [1, 16]?
A: 32 µg/mL (≈ 80.7 µM)

Q: And the MIC [1, 17]?
A: 64 µg/mL (≈ 161 µM)

Q: And the MIC [1, 18]?
A: 4 µg/mL (≈ 10.1 µM)

Q: And the MIC [1, 19]?
A: 32 µg/mL (≈ 80.7 µM)

Q: What about the MIC [1, 20] of the same compound?
A: 2 µg/mL (≈ 5.04 µM)

Q: And the MIC [1, 21]?
A: 32 µg/mL (≈ 80.7 µM)

Q: What about the MIC ([1]; culture H232 (control), table part marked b) of the same compound?
A: 0.5 µg/mL (≈ 1.26 µM)

Q: And the MIC ([1]; culture H232 (control), table part marked c)?
A: 0.5 µg/mL (≈ 1.26 µM)

Q: And the MIC ([1]; culture Kavarnick 1138501, table part marked b)?
A: 4 µg/mL (≈ 10.1 µM)

Q: And the MIC ([1]; culture Kavarnick 1138501, table part marked c)?
A: 64 µg/mL (≈ 161 µM)

Q: What about the MIC [1, 22] of the same compound?
A: 8 µg/mL (≈ 20.2 µM)

Q: And the MIC [1, 23]?
A: 64 µg/mL (≈ 161 µM)

Q: And the MIC ([1]; culture S, table part marked b)?
A: 8 µg/mL (≈ 20.2 µM)

Q: And the MIC ([1]; culture S, table part marked c)?
A: 64 µg/mL (≈ 161 µM)

Q: What about the MIC ([2]; culture 3055 (control, benzylpenicillin sensitive), table part marked b) of the same compound?
A: < 0.25 µg/mL

Q: What about the MIC ([2]; culture 3055 (control, benzylpenicillin sensitive), table part marked c) of the same compound?
A: < 0.25 µg/mL

Q: What about the MIC [2, 4] of the same compound?
A: 8 µg/mL (≈ 20.2 µM)

Q: And the MIC [2, 5]?
A: 64 µg/mL (≈ 161 µM)

Q: What about the MIC [2, 6] of the same compound?
A: 1 µg/mL (≈ 2.52 µM)

Q: What about the MIC [2, 7] of the same compound?
A: 32 µg/mL (≈ 80.7 µM)

Q: And the MIC ([2]; culture 3132, table part marked b)?
A: 2 µg/mL (≈ 5.04 µM)

Q: And the MIC ([2]; culture 3132, table part marked c)?
A: 16 µg/mL (≈ 40.4 µM)

Q: And the MIC ([2]; culture 3133, table part marked b)?
A: 2 µg/mL (≈ 5.04 µM)

Q: And the MIC ([2]; culture 3133, table part marked c)?
A: 64 µg/mL (≈ 161 µM)

Q: What about the MIC [2, 8] of the same compound?
A: 8 µg/mL (≈ 20.2 µM)

Q: And the MIC [2, 9]?
A: 64 µg/mL (≈ 161 µM)

Q: And the MIC [2, 10]?
A: 2 µg/mL (≈ 5.04 µM)

Q: What about the MIC [2, 11] of the same compound?
A: 32 µg/mL (≈ 80.7 µM)

Q: What about the MIC [2, 12] of the same compound?
A: 2 µg/mL (≈ 5.04 µM)

Q: What about the MIC [2, 13] of the same compound?
A: 32 µg/mL (≈ 80.7 µM)

Q: And the MIC [2, 14]?
A: 64 µg/mL (≈ 161 µM)

Q: And the MIC [2, 15]?
A: 128 µg/mL (≈ 323 µM)

Q: And the MIC [2, 16]?
A: 8 µg/mL (≈ 20.2 µM)

Q: What about the MIC [2, 17] of the same compound?
A: 64 µg/mL (≈ 161 µM)

Q: And the MIC [2, 18]?
A: 1 µg/mL (≈ 2.52 µM)

Q: What about the MIC [2, 19] of the same compound?
A: 32 µg/mL (≈ 80.7 µM)

Q: And the MIC [2, 20]?
A: 1 µg/mL (≈ 2.52 µM)

Q: And the MIC [2, 21]?
A: 32 µg/mL (≈ 80.7 µM)

Q: What about the MIC ([2]; culture H232 (control, benzylpenicillin-resistant), table part marked b) of the same compound?
A: < 0.25 µg/mL

Q: And the MIC ([2]; culture H232 (control, benzylpenicillin-resistant), table part marked c)?
A: < 0.25 µg/mL

Q: What about the MIC ([2]; culture Kavarmark 1138501, table part marked b) of the same compound?
A: 2 µg/mL (≈ 5.04 µM)

Q: And the MIC ([2]; culture Kavarmark 1138501, table part marked c)?
A: 32 µg/mL (≈ 80.7 µM)

Q: And the MIC [2, 22]?
A: 2 µg/mL (≈ 5.04 µM)

Q: And the MIC [2, 23]?
A: 64 µg/mL (≈ 161 µM)

Q: What about the MIC ([3]; culture 3055 (control), Trypticase Soy Agar with 4.5% NaCl added (5% NaCl)) of the same compound?
A: 0.25 µg/mL (≈ 0.631 µM)

Q: And the MIC ([3]; culture 3055 (control), Trypticase Soy Agar, 0.5% NaCl)?
A: 0.13 µg/mL (≈ 0.328 µM)

Q: And the MIC ([3]; culture 3130, Trypticase Soy Agar with 4.5% NaCl added (5% NaCl))?
A: 1 µg/mL (≈ 2.52 µM)

Q: And the MIC ([3]; culture 3130, Trypticase Soy Agar, 0.5% NaCl)?
A: 0.5 µg/mL (≈ 1.26 µM)

Q: And the MIC ([3]; culture 3131, Trypticase Soy Agar with 4.5% NaCl added (5% NaCl))?
A: 1 µg/mL (≈ 2.52 µM)

Q: What about the MIC ([3]; culture 3131, Trypticase Soy Agar, 0.5% NaCl) of the same compound?
A: 0.5 µg/mL (≈ 1.26 µM)

Q: What about the MIC ([3]; culture 3132, Trypticase Soy Agar with 4.5% NaCl added (5% NaCl)) of the same compound?
A: 0.5 µg/mL (≈ 1.26 µM)

Q: And the MIC ([3]; culture 3132, Trypticase Soy Agar, 0.5% NaCl)?
A: 0.5 µg/mL (≈ 1.26 µM)

Q: And the MIC ([3]; culture 3133, Trypticase Soy Agar with 4.5% NaCl added (5% NaCl))?
A: 0.5 µg/mL (≈ 1.26 µM)

Q: What about the MIC ([3]; culture 3133, Trypticase Soy Agar, 0.5% NaCl) of the same compound?
A: 0.5 µg/mL (≈ 1.26 µM)

Q: And the MIC ([3]; culture 3134, Trypticase Soy Agar with 4.5% NaCl added (5% NaCl))?
A: 1 µg/mL (≈ 2.52 µM)

Q: What about the MIC ([3]; culture 3134, Trypticase Soy Agar, 0.5% NaCl) of the same compound?
A: 2 µg/mL (≈ 5.04 µM)

Q: And the MIC ([3]; culture 3135, Trypticase Soy Agar with 4.5% NaCl added (5% NaCl))?
A: 1 µg/mL (≈ 2.52 µM)

Q: What about the MIC ([3]; culture 3135, Trypticase Soy Agar, 0.5% NaCl) of the same compound?
A: 1 µg/mL (≈ 2.52 µM)

Q: And the MIC ([3]; culture 3136, Trypticase Soy Agar with 4.5% NaCl added (5% NaCl))?
A: 1 µg/mL (≈ 2.52 µM)

Q: And the MIC ([3]; culture 3136, Trypticase Soy Agar, 0.5% NaCl)?
A: 0.5 µg/mL (≈ 1.26 µM)

Q: And the MIC ([3]; culture 3137, Trypticase Soy Agar with 4.5% NaCl added (5% NaCl))?
A: 1 µg/mL (≈ 2.52 µM)

Q: What about the MIC ([3]; culture 3137, Trypticase Soy Agar, 0.5% NaCl) of the same compound?
A: 2 µg/mL (≈ 5.04 µM)

Q: What about the MIC ([3]; culture 3138, Trypticase Soy Agar with 4.5% NaCl added (5% NaCl)) of the same compound?
A: 2 µg/mL (≈ 5.04 µM)

Q: And the MIC ([3]; culture 3138, Trypticase Soy Agar, 0.5% NaCl)?
A: 1 µg/mL (≈ 2.52 µM)

Q: And the MIC ([3]; culture 3139, Trypticase Soy Agar with 4.5% NaCl added (5% NaCl))?
A: 0.25 µg/mL (≈ 0.631 µM)

Q: What about the MIC ([3]; culture 3139, Trypticase Soy Agar, 0.5% NaCl) of the same compound?
A: 0.5 µg/mL (≈ 1.26 µM)

Q: And the MIC ([3]; culture H232 (control), Trypticase Soy Agar with 4.5% NaCl added (5% NaCl))?
A: 0.25 µg/mL (≈ 0.631 µM)

Q: What about the MIC ([3]; culture H232 (control), Trypticase Soy Agar, 0.5% NaCl) of the same compound?
A: 2.5 µg/mL (≈ 6.31 µM)

Q: What about the MIC ([3]; culture Havarmak 1136501, Trypticase Soy Agar with 4.5% NaCl added (5% NaCl)) of the same compound?
A: 1 µg/mL (≈ 2.52 µM)

Q: What about the MIC ([3]; culture Havarmak 1136501, Trypticase Soy Agar, 0.5% NaCl) of the same compound?
A: 1 µg/mL (≈ 2.52 µM)

Q: And the MIC ([3]; culture S 61, Trypticase Soy Agar with 4.5% NaCl added (5% NaCl))?
A: 1 µg/mL (≈ 2.52 µM)

Q: And the MIC ([3]; culture S 61, Trypticase Soy Agar, 0.5% NaCl)?
A: 1 µg/mL (≈ 2.52 µM)

Q: What about the MIC ([3]; culture Seattle 966, Trypticase Soy Agar with 4.5% NaCl added (5% NaCl)) of the same compound?
A: 0.25 µg/mL (≈ 0.631 µM)

Q: And the MIC ([3]; culture Seattle 966, Trypticase Soy Agar, 0.5% NaCl)?
A: 0.5 µg/mL (≈ 1.26 µM)
